# Laboratory results from PMC4303209, “A novel phosphatidylinositol 3-kinase (PI3K) inhibitor directs a potent FOXO-dependent, p53-independent cell cycle arrest phenotype characterized by the differential induction of a subset of FOXO-regulated genes” (Breast Cancer Research : BCR, 2014).
# Tested on: MCF-7 breast cancer cells
# Assay: Microarray gene expression analysis (Agilent whole human genome 4 x 44K; compound vs DMSO, LIMMA log2 fold change)
# Format: cell-based
compound,measurement,setting,value
Oc1cccc(-c2nc(N3CCOCC3)c3oc4ncccc4c3n2)c1 [PI-103],EYA1 log2FC,"gene EYA1 (2138), apoptosis genes",0.027
same,log2FC EYA1,"gene EYA1 (Gene 2138), cell cycle genes",0.027
same,FABP1 log2FC,"gene FABP1 (2168), apoptosis genes",-0.014
same,FAIM2 log2FC,"gene FAIM2 (23017), apoptosis genes",0.077
same,FAM3B log2FC,"gene FAM3B (54097), apoptosis genes",-0.110
same,FAM32A log2FC,"gene FAM32A (26017), apoptosis genes",-0.300
same,log2FC FAM32A,"gene FAM32A (Gene 26017), cell cycle genes",-0.30
same,log2FC,"gene FAM58A (Gene 92002), cell cycle genes",0.17
same,FAS log2FC,"gene FAS (355), apoptosis genes",-0.278
same,log2FC,"gene FBXL15 (Gene 79176), cell cycle genes",0.25
same,log2FC FGFR1OP,"gene FGFR1OP (Gene 11116), cell cycle genes",-0.20
same,FIS1 log2FC,"gene FIS1 (51024), apoptosis genes",0.161
same,FKSG2 log2FC,"gene FKSG2 (59347), apoptosis genes",-0.076
same,log2FC,"gene FMN2 (Gene 56776), cell cycle genes",0.00262
same,FOXB1 log2FC,"gene FOXB1 (27023), apoptosis genes",-0.433
same,log2FC,"gene FSD1 (Gene 79187), cell cycle genes",-0.09
same,GADD45G log2FC,"gene GADD45G (10912), apoptosis genes",-0.195
same,GAPDH log2FC,"gene GAPDH (2597), apoptosis genes",0.013
same,log2FC,"gene GAS2L1 (Gene 10634), cell cycle genes",-0.26
same,log2FC GAS2L2,"gene GAS2L2 (Gene 246176), cell cycle genes",-0.00222
same,GAS6 log2FC,"gene GAS6 (2621), apoptosis genes",-0.103
same,GATA6 log2FC,"gene GATA6 (2627), apoptosis genes",0.052
same,log2FC GATA6,"gene GATA6 (Gene 2627), cell cycle genes",0.05
same,GCG log2FC,"gene GCG (2641), apoptosis genes",0.035
same,GCLM log2FC,"gene GCLM (2730), apoptosis genes",-0.246
same,GCM2 log2FC,"gene GCM2 (9247), apoptosis genes",-0.063
same,log2FC,"gene GEM (Gene 2669), cell cycle genes",0.84
same,GFRAL log2FC,"gene GFRAL (389400), apoptosis genes",-0.028
same,GHRL log2FC,"gene GHRL (51738), apoptosis genes",-0.060
same,GIMAP5 log2FC,"gene GIMAP5 (55340), apoptosis genes",0.028
same,GJB6 log2FC,"gene GJB6 (10804), apoptosis genes",0.090
same,log2FC,"gene GOLGA2 (Gene 2801), cell cycle genes",0.24
same,log2FC,"gene GORASP1 (Gene 64689), cell cycle genes",0.05
same,log2FC,"gene GORASP2 (Gene 26003), cell cycle genes",-0.48
same,GPI log2FC,"gene GPI (2821), apoptosis genes",0.047
same,GPR65 log2FC,"gene GPR65 (8477), apoptosis genes",-0.016
same,GRK1 log2FC,"gene GRK1 (6011), apoptosis genes",-0.053
same,log2FC,"gene GTPBP8 (Gene 29083), cell cycle genes",0.10
same,log2FC,"gene GTSE1 (Gene 51512), cell cycle genes",-0.33
same,log2FC H1FOO,"gene H1FOO (Gene 132243), cell cycle genes",0.05
same,HCLS1 log2FC,"gene HCLS1 (3059), apoptosis genes",0.112
same,log2FC,"gene HELLS (Gene 3070), cell cycle genes",0.14
same,HIPK3 log2FC,"gene HIPK3 (10114), apoptosis genes",-0.044
same,log2FC HORMAD2,"gene HORMAD2 (Gene 150280), cell cycle genes",0.09
same,log2FC HPGD,"gene HPGD (Gene 3248), cell cycle genes",0.065
same,HPN log2FC,"gene HPN (3249), apoptosis genes",-0.076
same,HTRA2 log2FC,"gene HTRA2 (27429), apoptosis genes",0.078
same,log2FC HTRA2,"gene HTRA2 (Gene 27429), cell cycle genes",0.08
same,IFI6 log2FC,"gene IFI6 (2537), apoptosis genes",0.0043
same,IFNA2 log2FC,"gene IFNA2 (3440), apoptosis genes",0.014
same,IFNB1 log2FC,"gene IFNB1 (3456), apoptosis genes",0.022
same,IL1A log2FC,"gene IL1A (3552), apoptosis genes",-0.067
same,IL2RA log2FC,"gene IL2RA (3559), apoptosis genes",-0.038
same,IL2RB log2FC,"gene IL2RB (3560), apoptosis genes",-0.066
same,IL12A log2FC,"gene IL12A (3592), apoptosis genes",-0.262
same,log2FC IL12A,"gene IL12A (Gene 3592), cell cycle genes",-0.26
same,IL12B log2FC,"gene IL12B (3593), apoptosis genes",-0.023
same,IL17A log2FC,"gene IL17A (3605), apoptosis genes",0.037
same,IL19 log2FC,"gene IL19 (29949), apoptosis genes",-0.032
same,ILK log2FC,"gene ILK (3611), apoptosis genes",-0.047
same,log2FC ILKAP,"gene ILKAP (Gene 80895), cell cycle genes",-0.08
same,INSL6 log2FC,"gene INSL6 (11172), apoptosis genes",0.047
same,ISL1 log2FC,"gene ISL1 (3670), apoptosis genes",-0.142
same,ITGA6 log2FC,"gene ITGA6 (3655), apoptosis genes",-0.139
same,ITGB2 log2FC,"gene ITGB2 (3689), apoptosis genes",0.148
same,ITM2C log2FC,"gene ITM2C (81618), apoptosis genes",0.019
same,log2FC KATNB1,"gene KATNB1 (Gene 10300), cell cycle genes",0.26
same,log2FC KCNA5,"gene KCNA5 (Gene 3741), cell cycle genes",-0.0139
same,KDR log2FC,"gene KDR (3791), apoptosis genes",-0.033
same,log2FC,"gene KIAA0101 (Gene 9768), cell cycle genes",0.28
same,KIAA1324 log2FC,"gene KIAA1324 (57535), apoptosis genes",-0.031
same,log2FC KIF2B,"gene KIF2B (Gene 84643), cell cycle genes",-0.17
same,log2FC,"gene KIF13A (Gene 63971), cell cycle genes",0.06
same,log2FC,"gene KIF23 (Gene 9493), cell cycle genes",0.55
same,log2FC KIF25,"gene KIF25 (Gene 3834), cell cycle genes",0.00228
same,KLF4 log2FC,"gene KLF4 (9314), apoptosis genes",-0.178
same,KRT20 log2FC,"gene KRT20 (54474), apoptosis genes",-0.013
same,LALBA log2FC,"gene LALBA (3906), apoptosis genes",-0.012
same,log2FC LATS1,"gene LATS1 (Gene 9113), cell cycle genes",0.0843
same,log2FC,"gene LATS2 (Gene 26524), cell cycle genes",0.38
same,LCMT1 log2FC,"gene LCMT1 (51451), apoptosis genes",0.003
same,LCN2 log2FC,"gene LCN2 (3934), apoptosis genes",0.063
same,log2FC,"gene LEMD3 (Gene 23592), cell cycle genes",0.29
same,LGALS1 log2FC,"gene LGALS1 (3956), apoptosis genes",0.053
same,LGALS12 log2FC,"gene LGALS12 (85329), apoptosis genes",0.050
same,LGALS14 log2FC,"gene LGALS14 (56891), apoptosis genes",0.104
same,log2FC,"gene LMNA (Gene 4000), cell cycle genes",-0.0134
same,LRP1 log2FC,"gene LRP1 (4035), apoptosis genes",0.043
same,log2FC,"gene LRP6 (Gene 4040), cell cycle genes",-0.12
same,log2FC,"gene LSM11 (Gene 134353), cell cycle genes",0.09
same,LTA log2FC,"gene LTA (4049), apoptosis genes",0.136
same,LTF log2FC,"gene LTF (4057), apoptosis genes",0.014
same,MAD2L1 log2FC,"gene MAD2L1 (4085), apoptosis genes",-0.145
same,MAEL log2FC,"gene MAEL (84944), apoptosis genes",-0.172
same,log2FC MAEL,"gene MAEL (Gene 84944), cell cycle genes",-0.17
same,MAGED1 log2FC,"gene MAGED1 (9500), apoptosis genes",-0.047
same,MAGEH1 log2FC,"gene MAGEH1 (28986), apoptosis genes",0.025
same,MAP2K5 log2FC,"gene MAP2K5 (5607), apoptosis genes",-0.018
same,MAP2K7 log2FC,"gene MAP2K7 (5609), apoptosis genes",0.032
same,log2FC,"gene MAP3K8 (Gene 1326), cell cycle genes",0.0265
same,log2FC,"gene MAP4 (Gene 4134), cell cycle genes",-0.23
same,MAPK1 log2FC,"gene MAPK1 (5594), apoptosis genes",0.017
same,log2FC,"gene MAPK4 (Gene 5596), cell cycle genes",-0.08
same,log2FC,"gene MAPK6 (Gene 5597), cell cycle genes",0.12
same,MAPK8 log2FC,"gene MAPK8 (5599), apoptosis genes",-0.015
same,MAPK9 log2FC,"gene MAPK9 (5601), apoptosis genes",-0.052
same,log2FC,"gene MAPK12 (Gene 6300), cell cycle genes",-0.18
same,MAPT log2FC,"gene MAPT (4137), apoptosis genes",0.031
same,log2FC MCM4,"gene MCM4 (Gene 4173), cell cycle genes",-0.12
same,MDM4 log2FC,"gene MDM4 (4194), apoptosis genes",-0.144
same,log2FC,"gene MED25 (Gene 81857), cell cycle genes",-0.19
same,MKL1 log2FC,"gene MKL1 (57591), apoptosis genes",0.300
same,MKNK1 log2FC,"gene MKNK1 (8569), apoptosis genes",0.102
same,MNDA log2FC,"gene MNDA (4332), apoptosis genes",0.077
same,MSX2 log2FC,"gene MSX2 (4488), apoptosis genes",0.052
same,MT3 log2FC,"gene MT3 (4504), apoptosis genes",-0.313
same,log2FC,"gene MYOG (Gene 4656), cell cycle genes",-0.13
same,NACA log2FC,"gene NACA (4666), apoptosis genes",0.038
same,log2FC NANOG,"gene NANOG (Gene 79923), cell cycle genes",-0.07
same,log2FC,"gene NASP (Gene 4678), cell cycle genes",0.16
same,NCF1 log2FC,"gene NCF1 (653361), apoptosis genes",0.093
same,NCF2 log2FC,"gene NCF2 (4688), apoptosis genes",-0.014
same,log2FC,"gene NCOR1 (Gene 9611), cell cycle genes",0.25
same,NDUFS3 log2FC,"gene NDUFS3 (4722), apoptosis genes",0.064
same,NEURL log2FC,"gene NEURL (9148), apoptosis genes",0.053
same,NEUROD1 log2FC,"gene NEUROD1 (4760), apoptosis genes",0.039
same,log2FC NEUROG1,"gene NEUROG1 (Gene 4762), cell cycle genes",-0.44
same,NLE1 log2FC,"gene NLE1 (54475), apoptosis genes",0.195
same,NME6 log2FC,"gene NME6 (10201), apoptosis genes",-0.015
same,log2FC NME6,"gene NME6 (Gene 10201), cell cycle genes",-0.0153
same,NOS1AP log2FC,"gene NOS1AP (9722), apoptosis genes",0.021
same,NOTCH1 log2FC,"gene NOTCH1 (4851), apoptosis genes",-0.008
same,NOX5 log2FC,"gene NOX5 (79400), apoptosis genes",0.00161
same,log2FC NOX5,"gene NOX5 (Gene 79400), cell cycle genes",0.00161
same,NTRK1 log2FC,"gene NTRK1 (4914), apoptosis genes",0.391
same,log2FC,"gene NUMA1 (Gene 4926), cell cycle genes",-0.09
same,log2FC,"gene NUP153 (Gene 9972), cell cycle genes",-0.34
same,log2FC NUP155,"gene NUP155 (Gene 9631), cell cycle genes",-0.14
same,log2FC,"gene NUP188 (Gene 23511), cell cycle genes",-0.16
same,NUPR1 log2FC,"gene NUPR1 (26471), apoptosis genes",0.072
same,OSR1 log2FC,"gene OSR1 (130497), apoptosis genes",-0.027
same,P4HB log2FC,"gene P4HB (5034), apoptosis genes",0.036
same,log2FC,"gene PA2G4 (Gene 5036), cell cycle genes",-0.51
same,PAFAH2 log2FC,"gene PAFAH2 (5051), apoptosis genes",-0.020
same,PAK6 log2FC,"gene PAK6 (56924), apoptosis genes",0.142
same,log2FC PAK6,"gene PAK6 (Gene 56924), cell cycle genes",0.14
same,log2FC,"gene PAPD5 (Gene 64282), cell cycle genes",0.31
same,PARK7 log2FC,"gene PARK7 (11315), apoptosis genes",0.018
same,PAX2 log2FC,"gene PAX2 (5076), apoptosis genes",0.009
same,log2FC PCNA,"gene PCNA (Gene 5111), cell cycle genes",-0.28
same,PCSK9 log2FC,"gene PCSK9 (255738), apoptosis genes",-0.221
same,log2FC PDCD2L,"gene PDCD2L (Gene 84306), cell cycle genes",-0.12
same,PDCD5 log2FC,"gene PDCD5 (9141), apoptosis genes",-0.049
same,PDCL3 log2FC,"gene PDCL3 (79031), apoptosis genes",-0.222
same,PDE1B log2FC,"gene PDE1B (5153), apoptosis genes",0.019
same,PDE3A log2FC,"gene PDE3A (5139), apoptosis genes",0.00129
same,log2FC PDE3A,"gene PDE3A (Gene 5139), cell cycle genes",0.00129
